For 5 compounds, IC50 results are on record in patent publication US9321766B1, “Kinase inhibitors” (Allergan, Inc., priority 2014, dated 2016).

Broadly, the IC50 is the concentration that inhibits the measured activity by half. Read a high IC50 as weaker potency.

One experiment deals with VEGFR2 (KDR) kinase (Homo sapiens (Human), UniProt P35968). The experiment in a line: VEGFR2 Kinase Assay (biochemical KDR kinase assay, poly-Glu-Tyr ELISA). As to conditions: purified cytoplasmic domain KDR protein, 2.7 μM ATP. The protocol: VEGFR2 kinase potency of select analogs was determined by the following assay:
Biochemical KDR kinase assays were performed in 96 well microtiter plates that were coated overnight with 75 μg/well of poly-Glu-Tyr (4:1) in 10 mM Phosphate Buffered Saline (PBS), pH 7.4. The coated plates were washed with 2 mls per well PBS+0.05% Tween-20 (PBS-T), blocked by incubation with PBS containing 1% BSA, then washed with 2 mls per well PBS-T prior to starting the reaction. Reactions were carried out in 100 μL reaction volumes containing 2.7 μM ATP in kinase buffer (50 mM Hepes buffer pH 7.4, 20 mM MgCl2, 0.1 mM MnCl2 and 0.2 mM Na3VO4). Test compounds were reconstituted in 100% DMSO and added to the reaction to give a final DMSO concentration of 5%. Reactions were initiated by the addition 20 ul per well of kinase buffer containing 200-300 ng purified cytoplasmic domain KDR protein (BPS Bioscience, San Diego, Calif.). Following a 15 minute incubation at 30° C., the reactions were washed 2 mls per well PBS-T. 100 μl of a monoclonal anti-phosphotyrosine antibody-peroxidase conjugate diluted 1:10,000 in PBS-T was added to the wells for 30 minutes. Following a 2 mis per well wash with PBS-Tween-20, 100μl of O-Phenylenediamine Dihydrochloride in phosphate-citrate buffer, containing urea hydrogen peroxide, was added to the wells for 7-10 minutes as a colorimetric substrate for the peroxidase. The reaction was terminated by the addition of 100 μl of 2.5N H2SO4 to each well and read using a microplate ELISA reader set at 492 nm. IC50 values for compound inhibition were calculated directly from graphs of optical density (arbitrary units) versus compound concentration following subtraction of blank values.
Background: An ELISA detects its analyte on a solid surface through an enzyme-linked reagent.

The target of another experiment is PDGFRβ kinase (Homo sapiens (Human), UniProt P09619). Put plainly: PDGFRβ Kinase Assay (biochemical, poly-Glu-Tyr ELISA). Particulars: purified cytoplasmic domain PDGFR-b protein, 36 μM ATP. The procedure: Biochemical PDGFR3 kinase assays were performed in 96 well microtiter plates that were coated overnight with 75 μg of poly-Glu-Tyr (4:1) in 10 mM Phosphate Buffered Saline (PBS), pH 7.4. The coated plates were washed with 2 mls per well PBS+0.05% Tween-20 (PBS-T), blocked by incubation with PBS containing 1% BSA, then washed with 2 mls per well PBS-T prior to starting the reaction. Reactions were carried out in 100 μL reaction volumes containing 36 μM ATP in kinase buffer (50 mM Hepes buffer pH 7.4, 20 mM MgCl2, 0.1 mM MnCl2 and 0.2 mM Na3VO4). Test compounds were reconstituted in 100% DMSO and added to the reaction to give a final DMSO concentration of 5%. Reactions were initiated by the addition 20 ul per well of kinase buffer containing 200-300 ng purified cytoplasmic domain PDGFR-b protein (Millipore). Following a 60 minute incubation at 30° C., the reactions were washed 2 mls per well PBS-T. 100 μl of a monoclonal anti-phosphotyrosine antibody-peroxidase conjugate diluted 1:10,000 in PBS-T was added to the wells for 30 minutes. Following a 2 mls per well wash with PBS-Tween-20, 100 μl of O-Phenylenediamine Dihydrochloride in phosphate-citrate buffer, containing urea hydrogen peroxide, was added to the wells for 7-10 minutes as a colorimetric substrate for the peroxidase. The reaction was terminated by the addition of 100 μl of 2.5N H2SO4 to each well and read using a microplate ELISA reader set at 492 nm. IC50 values for compound inhibition were calculated directly from graphs of optical density (arbitrary units) versus compound concentration following subtraction of blank values.
Chain of PDGFRβ kinase (P09619 554-1106): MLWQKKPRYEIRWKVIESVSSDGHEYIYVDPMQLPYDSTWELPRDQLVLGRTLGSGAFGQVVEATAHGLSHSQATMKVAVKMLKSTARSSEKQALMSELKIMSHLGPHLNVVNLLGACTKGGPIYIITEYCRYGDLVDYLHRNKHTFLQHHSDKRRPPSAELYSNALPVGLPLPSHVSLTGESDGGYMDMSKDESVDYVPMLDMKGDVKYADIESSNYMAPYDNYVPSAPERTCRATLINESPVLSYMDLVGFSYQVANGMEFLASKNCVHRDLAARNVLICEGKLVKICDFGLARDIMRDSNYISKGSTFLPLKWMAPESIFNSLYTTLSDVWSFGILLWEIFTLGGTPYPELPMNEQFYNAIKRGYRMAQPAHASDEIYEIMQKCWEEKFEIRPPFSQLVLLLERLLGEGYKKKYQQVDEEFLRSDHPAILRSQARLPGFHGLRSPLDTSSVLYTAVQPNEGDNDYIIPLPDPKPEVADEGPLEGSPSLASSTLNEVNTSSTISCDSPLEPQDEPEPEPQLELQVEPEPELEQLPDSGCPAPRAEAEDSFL

Chain of VEGFR2 (KDR) kinase (P35968 786-1356, species assumed): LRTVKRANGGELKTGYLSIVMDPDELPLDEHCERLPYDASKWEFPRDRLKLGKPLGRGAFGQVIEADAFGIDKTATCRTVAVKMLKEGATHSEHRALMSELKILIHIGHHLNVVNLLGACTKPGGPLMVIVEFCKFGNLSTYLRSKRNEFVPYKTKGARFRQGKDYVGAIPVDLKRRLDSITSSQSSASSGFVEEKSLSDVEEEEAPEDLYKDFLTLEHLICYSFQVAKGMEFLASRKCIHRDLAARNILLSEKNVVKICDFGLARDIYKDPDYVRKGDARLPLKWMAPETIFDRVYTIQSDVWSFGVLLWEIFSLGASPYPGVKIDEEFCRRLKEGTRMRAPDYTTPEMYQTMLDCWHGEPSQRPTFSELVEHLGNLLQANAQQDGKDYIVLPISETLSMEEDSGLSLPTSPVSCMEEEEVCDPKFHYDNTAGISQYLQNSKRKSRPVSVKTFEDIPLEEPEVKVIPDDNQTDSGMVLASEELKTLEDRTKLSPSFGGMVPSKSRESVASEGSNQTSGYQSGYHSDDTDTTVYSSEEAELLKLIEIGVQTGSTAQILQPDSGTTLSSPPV

On to `CC(C)(C)c1ccc(-n2cccc(N3CCc4nc(N)ncc4C3)c2=O)cc1` [Example 2, 3-(2-amino-7,8-dihydropyrido[4,3-d]pyrimidin-6(5H)-yl)-1-(4-(tert-butyl)phenyl)pyridin-2(1H)-one], for which the IC50 is 286 nM against VEGFR2 (KDR) kinase and 655 nM at PDGFRβ kinase.
`Cc1cc[nH]c(=O)c1N1CCc2nc(N)ncc2C1` [Example 3, 3-(2-amino-7,8-dihydropyrido[4,3-d]pyrimidin-6(5H)-yl)-4-methylpyridin-2(1H)-one]: the IC50 was over 10000 nM against VEGFR2 (KDR) kinase and 3890 nM against PDGFRβ kinase.
`Cc1ccn(-c2ccc(C(C)(C)C)cc2)c(=O)c1N1CCc2nc(N)ncc2C1` [Example 4, 3-(2-amino-7,8-dihydropyrido[4,3-d]pyrimidin-6(5H)-yl)-1-(4-tert-butylphenyl)-4-methylpyridin-2(1H)-one]: the IC50 against VEGFR2 (KDR) kinase is 86 nM; at PDGFRβ kinase, 381 nM.
In the same order, the values of `Cc1ccn(-c2cccc(N(C)C)c2)c(=O)c1N1CCc2nc(N)ncc2C1` [Example 14, 3-(2-amino-7,8-dihydropyrido[4,3-d]pyrimidin-6(5H)-yl)-1-[3-(dimethylamino)phenyl]-4-methylpyridin-2(1H)-one] are 327 nM and over 1000 nM.
Taken in the same sequence, the figures for `Cc1ccoc1C(=O)Nc1ccc(-n2ccc(C)c(N3CCc4nc(N)ncc4C3)c2=O)cc1` [Example 17, N-{4-[3-(2-amino-7,8-dihydropyrido[4,3-d]pyrimidin-6(5H)-yl)-4-methyl-2-oxopyridin-1(2H)-yl]phenyl}-3-methyl-2-furamide] were 29 nM and 33 nM.
